According to patent US20170305882A1, “BENZYL SUBSTITUTED INDAZOLES AS BUB1 KINASE INHIBITORS” (Bayer Pharma Aktiengesellschaft, priority 2014, published 2017):

Assays:
[1] = target: T1, (recombinant) catalytic domain of human Bub1 (amino acids 704-1085) (Homo sapiens, UniProt O43683); experiment: Equilibrium probe competition assay (TR-FRET kinase binding assay); conditions: read-out: IC50 (Assay 5, probe competition)
T1 construct: catalytic domain of human Bub1 (amino acids 704-1085); 6xHis (N); made in house; host or cells: Hi5 insect cells
From the text: Equilibrium Probe Competition Assay:
Bub1 binding affinity of compounds described in the present invention were quantified using a time-resolved fluorescence energy transfer (TR-FRET) kinase binding assay which measures displacement of the synthetic fluorescent probe 5-[({2-[2-({2-[1-(4-ethoxy-2,6-difluorobenzyl)-1H-indazol-3-yl]-4-(pyridin-4-ylamino)pyrimidin-5-yl}oxy)ethoxy]ethyl}carbamothioyl)amino]-2-(6-hydroxy-3-oxo-3H-xanthen-9-yl)benzoic acid (5-5-1) by the (recombinant) catalytic domain of human Bub1 (amino acids 704-1085). The enzyme was expressed in Hi5 insect cells with N-terminal 6×His/AviTag@ seqences, purified by affinity-(Ni-NTA) and size exclusion chromatography and site-specific biotinylated ex-vivo using a commercially available kit (Avidity).
In a typical assay 11 different concentrations of each compound (0.1 nM, 0.33 nM, 1.1 nM, 3.8 nM, 13 nM, 44 nM, ˜0.15 μM, ˜0.51 μM, ˜1.7 μM, 5.9 μM and 20 μM) were tested in duplicate within the same microtiter plate. To this end, 100-fold concentrated compound solutions (in DMSO) were made by serial dilution (1:3.4) of freshly prepared 2 mM stocks in a clear low volume 384-well source microtiter plate (Greiner Bio-One, Frickenhausen, Germany), from which 50 nl of compounds were transferred into a black low volume test microtiter plate from the same supplier. Subsequently 2 μL of a solution containing biotinylated Bub1 (the final concentration of Bub1 was adjusted depending on the activity of the enzyme lot in order to be within the linear dynamic range of the assay: typically ˜200 pM were used) and 1 nM Streptavidin Terbium Cryptate (Cisbio, No. 610SATLB) in aqueous assay buffer [50 mM Tris/HCl pH 7.5, 200 mM potassium chloride (KCl), 1.0 mM dithiothreitol (DTT), 0.1 mM sodium ortho-vanadate, 1% (v/v) glycerol, 0.01% (w/v) bovine serum albumine (BSA), 0.005% (v/v) Triton X-100 (Sigma), were added to the compounds in the test plate and the mixture was incubated for 15 min at 22′C to allow pre-equilibration of the putative enzyme-inhibitor complexes before the start of the probe competition reaction, which was initiated by the addition of 3 μL 1.67-fold concentrated solution (in assay buffer) of 5-5-1 (final concentration: 1.5 nM). The resulting mixture (5 μL final volume) was Incubated at 220 during 0, 15, 30, 60, 120, 240 and 1440 min. After each time point the resonance energy transfer from the Streptavidin Tb cryptate to the 3′,6′-dihydroxy-3H-spiro[2-benzofuran-1,9′-xanthen]-3-one moiety of 5-5-1 was measured in order to quantify the amount of fluorescent probe displaced by the test compounds. To this end, the fluorescence emissions at 520 nm and 490 nm after excitation at 330-350 nm were measured in a Pherastar FS TR-FRET plate reader, (BMG Lab technologies, Offenburg, Germany) and the ratio of the emissions (520 nm/490 nm) was taken as Indicator for the amount of Bub1/5-5-1 equilibrium complexes. The data were normalized using two sets of control wells for high-(=enzyme reaction without inhibitor=0%=Minimum inhibition) and low-(=all assay components without enzyme=100%=Maximum inhibition) Bub1 activity. IC50 values were calculated by fitting the normalized inhibition data to a 4-parameter logistic equation (Minimum, Maximum, IC50, Hill; Y=Max+(Min−Max)/(1+(X/IC50)Hill)).

[2] = tested on: HeLa human cervical tumor cells; experiment: Proliferation Assay (HeLa + Paclitaxel); assay type: cell-based; conditions: 3 nM paclitaxel, test substance 92 hours; read-out: Biological Assay 3: Proliferation Assay (HeLa + Paclitaxel) IC50
From the text: Proliferation Assay (HeLa+Paclitaxel):

[3] = tested on: pre-induced phospho-histone 2A (kinase activity of Bub1); experiment: H2A Abrogation-Assay (cell-based mechanistic assay, pre-treatment with Nocodazole); conditions: Nocodazole 16 h, then test compound 1 h; read-out: Biological Assay 4:2: H2A Abrogation IC50
From the text: Biological Assay 4.2: Abrogation-Assay
This assay measures the inhibition of histone 2A phosphorylation, which was induced by pre-treatment of the cells with Nocodazole, by a Bub1 kinase inhibitor.

[4] = tested on: HeLa human cervical tumor cells; experiment: Proliferation assay (HeLa cell line); assay type: cell-based; conditions: 96 h, 4 days incubation, crystal violet, read-out: Biological Assay 2: Proliferation assay (HeLa cell line) median IC50
From the text: Human tumour cells were originally obtained from the American Type Culture Collection (ATCC), the Deutsche Sammlung von Mikroorganismen und Zellkulturen (DSMZ, German Collection of Microorganisms and Cell Cultures), or Epo GmbH Berlin.

[5] = tested on: histone 2A phosphorylation (kinase activity of Bub1); experiment: H2A Formation-Assay (cell-based mechanistic assay, co-treatment with Nocodazole); conditions: 16 h, read-out: Biological Assay 4.1: H2A Formation IC50
[6] = target: T1, (recombinant) catalytic domain of human Bub1 (amino acids 704-1085); experiment: Bub1 kinase assay (TR-FRET); assay type: biochemical; conditions: ATP 10 μM, 60 min reaction, pH 7.5; read-out: Biological Assay 1: Bub1 kinase assay median IC50

Row | SMILES | IC50 ([1]; Time 15 min) | IC50 ([1]; Time 30 min) | IC50 ([1]; Time 60 min) | IC50 ([1]; Time 90 min) | IC50 ([1]; Time 120 min) | IC50 ([1]; Time 240 min) | IC50 ([1]; Time 1440 min) | IC50 [2] | IC50 [3] | IC50 [4] | IC50 [5] | IC50 [6]
1 | CCOc1cc(F)c(Cn2nc(-c3ncc(OCCCO)c(Nc4ccnc(NC(C)=O)c4)n3)c3ccccc32)c(F)c1 [Example 2-1-5, N-[4-({2-[1-(4-ethoxy-2,6-difluorobenzyl)-1H-indazol-3-yl]-5-(3-hydroxypropoxy)pyrimidin-4-yl}amino)pyridin-2-yl]acetamide] | 0.59 nM | 0.49 nM | 0.32 nM | 0.26 nM | 0.2 nM | 0.16 nM | 0.098 nM | 100 nM | 4.4 nM | > 10000 nM | 28 nM | 3.5 nM
2 | CCOc1cc(F)c(Cn2nc(-c3ncc(OCCCO)c(Nc4ccncc4Cl)n3)c3ccccc32)c(F)c1 [Example 2-1-6, 3-{[4-[(3-chloropyridin-4-yl)amino]-2-[1-(4-ethoxy-2,6-difluorobenzyl)-1H-indazol-3-yl]pyrimidin-5-yl}oxy)propan-1-ol] | 1.7 nM | 0.87 nM | 0.85 nM | 1.2 nM | 0.38 nM | 0.31 nM | 0.2 nM | 120 nM | 58 nM | 5900 nM | 45 nM | 8.3 nM
